System: MB004 tumors
Procedure: Mouse subcutaneous and orthotopic xenograft. Athymic Ncr-nu/nu female mice (6-7 weeks old) were subcutaneously injected with 10,000 MB004 cells. Mice were weighed and distributed in two groups (control and 6-thio-dG). After tumor-establishment (day 23-24 post-implantation) with an average volume of 100-200 mm3, mice were injected intraperitoneally (i.p) every 2 days with 6-thio-dG (2.5 mg/kg) or DMSO-PBS (vehicle) for 3-4 weeks until euthanization. Tumors were measured by slide calipers taking two longest tumor-diameters (length and width) perpendicular to each other and volumes were calculated by using the formula: (π/6)×d3, where d=mean diameter. For orthotopic xenograft, CCHMC-DIPG-1 luciferase-positive cells (10,000) were injected in the brain of NRG (NOD.Cg-Rag1tm1Mom Il2rgtm1Wjl/SzJ) mice. Briefly, mice were injected stereotactically with 2 μl medium containing 10,000 luciferase-positive cells. The coordinates for injection were 0.8-1 mm posterior to lambda suture and 3.5 mm deep, corresponding to the pons location in the brain. Tumors were visualized by luminescence using IVIS Spectrum CT in vivo imaging system (PerkinElmer). All animal procedures were approved by the Institutional Animal Care and Use Committee (IACUC) (protocol #IACUC2015-0066, CCHMC).
Immunohistochemistry. Formalin-fixed paraffin-embedded (FFPE) sections were deparaffinized in xylene followed by rehydration through a graded ethanol concentration series. Heat-induced antigen retrieval was performed by steaming slides for 20 minutes in 10 mM Citrate buffer (pH 6.0). […] Slides were washed with TBST (×3) and were treated with biotinylated anti-rabbit secondary antibody (1:500) and signal-amplified using ABC Kit (Vector Laboratories). Signal was visualized with DAB (Vector Laboratories) and counterstained with Harris Hematoxylin (Sigma). H & E staining was performed using hematoxylin-1 and eosin-Y (Thermo Scientific). Tissues were mounted with Permount (Fisher Scientific) and imaged by Nikon eclipse 80i microscope.
Tissue TIF assay. Tissue samples were pre-fixed with 4% PFA and were cryo-protected in 25% sucrose/PBS solution, then embedded in OCT freezing molds with Neg-50 (VWR) in acetone and dry ice followed by cryo-sectioning. Heat-induced antigen retrieval and Telomere-FISH was performed as described above. The samples were incubated in blocking solution (5% donkey serum, 0.3% Triton X-100 in TBS) for 30 minutes and treated with anti-53BP1 (rabbit 1:500; Novus Biologicals) for 1 hour at room temperature. After washing in TBST (×3), the samples were incubated with secondary antibody Alexa-Fluor 488-conjugated donkey anti-rabbit (1:400; Jackson ImmunoResearch), and washed in TBS (×3). The samples were embedded in mounting media with DAPI (Vector Laboratories H1200). Images were captured with 60× oil objective on Nikon Eclipse Ti confocal microscope.

[1] = 2.5 mg/kg i.p. every 2 days for 3-4 weeks
[2] = 2.5 mg/kg i.p. every 2 days, vs untreated group

## Nc1nc2c(ncn2[C@H]2C[C@H](O)[C@@H](CO)O2)c(=S)[nH]1 [6-thio-dG, 6-thio-2′-deoxyguanosine]
2.5 mg/kg i.p. every 2 days
  in-tumor cells with at least 1-3 TIFs: More than 21%
  population of cells with 4-6 TIFs per cell: detected only in treated tumors
[1]
  treated mice with fast tumor growth: Two out of six
  treated mice with reduced or delayed tumor growth: Four out of six
2.5 mg/kg i.p. every 2 days, vs control group
  in-tumor apoptosis (cleaved caspase-3 IHC): significant increase in apoptosis
[2]
  apoptotic bodies (H & E): increase in apoptotic bodies
  number of mitotic figures (H & E): significant decrease
Upon reaching tumor volume of 1500 mm^3, vs vehicle group
  probability of animal survival: significantly higher

Source: patent publication US12594293B2, “Use of 6-thio-dG to treat therapy-resistant telomerasepositive pediatric brain tumors” (The Board of Regents of The University of Texas System, priority 2018, dated 2026)
